Tests used:
[1] = PFAS levels in urine samples of airport employees, specific-gravity adjusted (LC/MS/MS); type: in vivo, human
Method: Only one employee provided a single urine sample. […] All employees provided written informed consent.
The samples were thawed 1–2 h, then mixed by vortex shaker and manual turning. […] For the urine samples, 50μL urine was mixed with 25μL of methanol and 25μL of a 50% acetonitrile solution containing isotopically labeled internal standards (see Table S1). Then samples were shaken vigorously for 30 min and centrifuged at 3,000×g for 10 min at room temperature.
Aliquots of 20μL of the sample were analyzed using LC/MS/MS. […] The analysis was performed in negative ion mode. The ion source temperature was at 350°C.
Urinary PFAS concentrations were specific-gravity adjusted. The ratio of urine and serum concentration for each PFAS (urine/serum ratio) at each sampling was calculated based on PFAS concentrations in paired serum and urine samples from 17 employees. Then the personal average urine/serum ratio was calculated using the mean value of repeated samplings for each employee.

[2] = PFAS levels in serum samples of airport employees (LC/MS/MS)
Excerpt: All 26 employees at the airport were invited for a blood sampling between 11 and 14 September 2018 (i.e., within 11 to 14 d after the termination of contaminated drinking-water exposure). Information on age, home address, employment history, working tasks, and sick leave and vacation days in August and September were collected by questionnaire. In addition, data on the number of glasses of water consumed per day, local fish consumption, and history of blood donation and medication were collected. For female employees, questions about menstruation, pregnancy, and duration of breast-feeding were asked.
The PFAS analysis in serum from the first sampling was immediately performed and personal results were reported to the employees. […] These 17 employees submitted four rounds of blood and first morning urine samples in parallel, at 1-month intervals. In total, there were five rounds of serum sampling (started from September) and four rounds of urine sampling (from October). For modeling of elimination, all samples were reanalyzed in a single batch. We obtained 83 serum samples with a median count of 5 (range: 4–5) samples per employee, and 59 urine samples with median of 4 (range: 1–4) samples per employee. Only one employee provided a single urine sample. The study was approved by the Regional Ethical Review Board in Lund, Sweden. All employees provided written informed consent.
Venous whole blood samples were obtained and were centrifuged for 10 min at 1,500×g at room temperature to isolate the serum on site. The serum samples were collected in 6-mL BD Vacutainer® Plus plastic serum tubes without gel (BD). Urine samples were collected in 13-mL polypropylene screw cap tubes (Sarstedt). Serum and urine samples were frozen at −20°C after sampling and transported to Lund using cold chain logistics. Serum and urine samples were stored at −80°C and −20°C , respectively, before analysis.
The serum samples, QC samples, and chemical blanks were prepared in 96-well plates with 1.5-mL flat-bottom glass vials (Biotech solutions). Serum samples were thawed for 1–2 h and mixed on a vortex shaker for approximately 10 s two times. Once after all samples were thawed and a second time before pipetting the serum to the plate. Before pipetting, the tip was pre-wetted several times, drawing a volume into the tip and dispensing it back into the tube. Sample preparation procedures for serum samples consisted of 25μL serum mixed with 25μL water, 25μL methanol, 25μL isotopically labeled internal standards in 50% acetonitrile (see Table S1), and 100μL acetonitrile. Thereafter, samples were mixed vigorous by shaking for 30 min and centrifuged at 2,600×g for 10 min at room temperature. The supernatant ( 0.2mL ) was transferred to 96-well plates with 0.5-mL conical glass vials (MicroLiter Analytical Supplies) and again centrifuged at 3,000×g for 10 min before analysis. The QC samples and chemical blanks were prepared following the same procedure as the serum samples. The calibration standards were prepared in FBS the same way as the samples, except for the addition of diluted reference standards of all analyzed compounds in 25μL of the methanol solution.
Aliquots of 4μL of the sample were analyzed using LC/MS/MS. For the analysis, a C18 column ( 4μm , 2.1mm i.d.×50mm , Genesis Lightning) was used prior to the injector to filter the mobile phases. The analytical column was an Aquity BEH ( 1.7μm , 2.1mm i.d.×100mm Waters). The mobile phases (A and B) were A: 5 mM ammonium acetate in water:methanol (50:50); and B: methanol. The mobile phase was kept at 0% B for 2.5 min after injection. A gradient was then applied over 11 min to 90% B, where it was then kept for 1.5 min. The column was then conditioned at 0% B for 2 min.

[3] = 2nd sampling (October 2018), count 17
[4] = 3rd sampling (November, 2018), count 16
[5] = 4th sampling (December 2018), count 14
[6] = 5th sampling (January 2019), count 12
[7] = 1st sampling (September 2018), count 17
[8] = 3rd sampling (November, 2018), count 17
[9] = 4th sampling (December 2018), count 16
[10] = 5th sampling (January 2019), count 16
[11] = employees participated in first blood sampling and repeated blood and urine sampling, N=17
[12] = employees participated in first blood sampling only, N=9, 11-14 d after end of exposure

Compound: Perfluoro-2/6-methylheptanesulfonate [2/6m-PFOS]
- Specific gravity adjusted urinary level, 25 percentile [1, 3]: < LOD
- Specific gravity adjusted urinary level, 75 percentile [1, 3]: < LOD
- Specific gravity adjusted urinary level, Max [1, 3]: < LOD
- Specific gravity adjusted urinary level, Median [1, 3]: < LOD
- Specific gravity adjusted urinary level, Min [1, 3]: < LOD
- Specific gravity adjusted urinary level, 25 percentile [1, 4]: < LOD
- Specific gravity adjusted urinary level, 75 percentile [1, 4]: < LOD
- Specific gravity adjusted urinary level, Max [1, 4]: 0.04 ng/mL
- Specific gravity adjusted urinary level, Median [1, 4]: < LOD
- Specific gravity adjusted urinary level, Min [1, 4]: < LOD
- Specific gravity adjusted urinary level, 25 percentile [1, 5]: < LOD
- Specific gravity adjusted urinary level, 75 percentile [1, 5]: < LOD
- Specific gravity adjusted urinary level, Max [1, 5]: 1.60 ng/mL
- Specific gravity adjusted urinary level, Median [1, 5]: < LOD
- Specific gravity adjusted urinary level, Min [1, 5]: < LOD
- Specific gravity adjusted urinary level, 25 percentile [1, 6]: < LOD
- Specific gravity adjusted urinary level, 75 percentile [1, 6]: < LOD
- Specific gravity adjusted urinary level, Max [1, 6]: 0.03 ng/mL
- Specific gravity adjusted urinary level, Median [1, 6]: < LOD
- Specific gravity adjusted urinary level, Min [1, 6]: < LOD
- Serum PFAS level, 25 percentile [2, 7]: 1.4
- Serum PFAS level, 75 percentile [2, 7]: 3.6
- Serum PFAS level, Max [2, 7]: 7.5
- Serum PFAS level, Median [2, 7]: 2.6
- Serum PFAS level, Min [2, 7]: 1.0
- Serum PFAS level, 25 percentile [2, 3]: 1.5
- Serum PFAS level, 75 percentile [2, 3]: 2.8
- Serum PFAS level, Max [2, 3]: 7.2
- Serum PFAS level, Median [2, 3]: 2.2
- Serum PFAS level, Min [2, 3]: 0.97
- Serum PFAS level, 25 percentile [2, 8]: 1.3
- Serum PFAS level, 75 percentile [2, 8]: 3.5
- Serum PFAS level, Max [2, 8]: 8.1
- Serum PFAS level, Median [2, 8]: 2.3
- Serum PFAS level, Min [2, 8]: 0.66
- Serum PFAS level, 25 percentile [2, 9]: 0.96
- Serum PFAS level, 75 percentile [2, 9]: 2.9
- Serum PFAS level, Max [2, 9]: 7.1
- Serum PFAS level, Median [2, 9]: 1.9
- Serum PFAS level, Min [2, 9]: 0.57
- Serum PFAS level, 25 percentile [2, 10]: 1.2
- Serum PFAS level, 75 percentile [2, 10]: 2.7
- Serum PFAS level, Max [2, 10]: 7.0
- Serum PFAS level, Median [2, 10]: 2.1
- Serum PFAS level, Min [2, 10]: 0.83
- PFAS in first serum sample, median (range) [2, 11]: 2.6 (1.0–7.5) ng/mL
- PFAS in first serum sample, median (range) [2, 12]: 1.8 (0.84–3.2) ng/mL
- Initial serum PFAS level, max ([2]; females (N=7)): 2.8 ng/mL
- Initial serum PFAS level, median ([2]; females (N=7)): 1.4 ng/mL
- Initial serum PFAS level, min ([2]; females (N=7)): 1.0 ng/mL
- Initial serum PFAS level, Max ([2]; males (N=19)): 7.5 ng/mL
- Initial serum PFAS level, Min ([2]; males (N=19)): 0.84 ng/mL
- Initial serum PFAS level, median ([2]; males (N=19)): 2.5 ng/mL
- Serum level, median (range) ([2]; second to fifth samplings, 17 airport employees): 2.1 (0.57–8.1) ng/mL

Compound: O=S(=O)(O)C(F)(C(F)(F)F)C(F)(F)C(F)(F)C(F)(F)C(F)(F)C(F)(F)C(F)(F)F (stereo not drawn) [1m-PFOS, perfluoro-1-methylheptanesulfonate]
- Serum PFAS level, 25 percentile [2, 7]: 0.48
- Serum PFAS level, 75 percentile [2, 7]: 1.8
- Serum PFAS level, Max [2, 7]: 4.1
- Serum PFAS level, Median [2, 7]: 1.0
- Serum PFAS level, Min [2, 7]: 0.32
- Serum PFAS level, 25 percentile [2, 3]: 0.54
- Serum PFAS level, 75 percentile [2, 3]: 1.4
- Serum PFAS level, Max [2, 3]: 4.0
- Serum PFAS level, Median [2, 3]: 0.89
- Serum PFAS level, Min [2, 3]: 0.26
- Serum PFAS level, 25 percentile [2, 8]: 0.54
- Serum PFAS level, 75 percentile [2, 8]: 1.5
- Serum PFAS level, Max [2, 8]: 4.4
- Serum PFAS level, Median [2, 8]: 0.88
- Serum PFAS level, Min [2, 8]: 0.24
- Serum PFAS level, 25 percentile [2, 9]: 0.47
- Serum PFAS level, 75 percentile [2, 9]: 1.3
- Serum PFAS level, Max [2, 9]: 4.3
- Serum PFAS level, Median [2, 9]: 0.91
- Serum PFAS level, Min [2, 9]: 0.24
- Serum PFAS level, 25 percentile [2, 10]: 0.51
- Serum PFAS level, 75 percentile [2, 10]: 1.3
- Serum PFAS level, Max [2, 10]: 4.5
- Serum PFAS level, Median [2, 10]: 0.97
- Serum PFAS level, Min [2, 10]: 0.26
- PFAS in first serum sample, median (range) [2, 11]: 1.0 (0.32–4.1) ng/mL
- PFAS in first serum sample, median (range) [2, 12]: 0.52 (0.25–2.7) ng/mL
- Initial serum PFAS level, max ([2]; females (N=7)): 1.1 ng/mL
- Initial serum PFAS level, median ([2]; females (N=7)): 0.58 ng/mL
- Initial serum PFAS level, min ([2]; females (N=7)): 0.39 ng/mL
- Initial serum PFAS level, Max ([2]; males (N=19)): 4.1 ng/mL
- Initial serum PFAS level, Min ([2]; males (N=19)): 0.25 ng/mL
- Initial serum PFAS level, median ([2]; males (N=19)): 1.1 ng/mL

Compound: perfluoro-3/4/5-methylheptanesulfonate [3/4/5m-PFOS]
- Serum PFAS level, 25 percentile [2, 7]: 2.7
- Serum PFAS level, 75 percentile [2, 7]: 6.3
- Serum PFAS level, Max [2, 7]: 17
- Serum PFAS level, Median [2, 7]: 4.9
- Serum PFAS level, Min [2, 7]: 1.7
- Serum PFAS level, 25 percentile [2, 3]: 2.4
- Serum PFAS level, 75 percentile [2, 3]: 4.8
- Serum PFAS level, Max [2, 3]: 15
- Serum PFAS level, Median [2, 3]: 4.1
- Serum PFAS level, Min [2, 3]: 1.3
- Serum PFAS level, 25 percentile [2, 8]: 2.5
- Serum PFAS level, 75 percentile [2, 8]: 5.1
- Serum PFAS level, Max [2, 8]: 16
- Serum PFAS level, Median [2, 8]: 4.2
- Serum PFAS level, Min [2, 8]: 1.0
- Serum PFAS level, 25 percentile [2, 9]: 2.1
- Serum PFAS level, 75 percentile [2, 9]: 4.9
- Serum PFAS level, Max [2, 9]: 16
- Serum PFAS level, Median [2, 9]: 3.6
- Serum PFAS level, Min [2, 9]: 1.0
- Serum PFAS level, 25 percentile [2, 10]: 2.7
- Serum PFAS level, 75 percentile [2, 10]: 4.9
- Serum PFAS level, Max [2, 10]: 16
- Serum PFAS level, Median [2, 10]: 4.0
- Serum PFAS level, Min [2, 10]: 1.0
- PFAS in first serum sample, median (range) [2, 11]: 4.9 (1.7–17) ng/mL
- PFAS in first serum sample, median (range) [2, 12]: 2.9 (1.2–6.7) ng/mL
- Initial serum PFAS level, max ([2]; females (N=7)): 5.4 ng/mL
- Initial serum PFAS level, median ([2]; females (N=7)): 2.9 ng/mL
- Initial serum PFAS level, min ([2]; females (N=7)): 1.7 ng/mL
- Initial serum PFAS level, Max ([2]; males (N=19)): 17 ng/mL
- Initial serum PFAS level, Min ([2]; males (N=19)): 1.2 ng/mL
- Initial serum PFAS level, median ([2]; males (N=19)): 4.9 ng/mL

— PMC7351026, “Serum Half-Lives for Short- and Long-Chain Perfluoroalkyl Acids after Ceasing Exposure from Drinking Water Contaminated by Firefighting Foam” (Environmental Health Perspectives, 2020)
